Experimental data as given in article PMC10792010, “Analysis of vitamin D receptor binding affinities of enzymatically synthesized triterpenes including ambrein and unnatural onoceroids” (Scientific Reports, 2024).
“Also recorded” adds a separate entry of the source. Read-outs that look alike come from different tables or passages of the source.

Experiments:
human VDR = target: T1, human VDR (Homo sapiens, UniProt P11473); test: VDR binding affinity, split-luciferase vitamin D biosensor; details: for VDR binding affinity (in words): comparison between compounds, Fig. 3a; for Relative binding affinity: normalized to that of 1
T1 construct: made in house; host or cells: E. coli (cell lysate used)
T1 sequence (P11473 127-423 limits assumed): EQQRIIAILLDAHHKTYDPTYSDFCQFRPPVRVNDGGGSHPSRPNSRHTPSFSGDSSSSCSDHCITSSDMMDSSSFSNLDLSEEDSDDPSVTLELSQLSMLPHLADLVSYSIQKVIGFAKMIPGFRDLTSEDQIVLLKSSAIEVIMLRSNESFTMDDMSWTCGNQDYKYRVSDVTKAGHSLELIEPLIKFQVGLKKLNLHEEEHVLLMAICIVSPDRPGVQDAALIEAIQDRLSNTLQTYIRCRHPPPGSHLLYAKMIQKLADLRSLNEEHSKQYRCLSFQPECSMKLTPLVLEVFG
Method: The binding affinity of each compound for the human VDR was evaluated as described previously[10],[19]. In brief, 49 μL of cell lysate derived from recombinant E. coli expressing split-luciferase vitamin D biosensor protein was added to individual wells of a 96-well plate. Next, 1 μL of ethanol solution of each compound at appropriate concentrations was added to each well and incubated for 30 min at 25 °C. Subsequently, 50 μL of the Luciferin solution containing 20 mM of MgSO4, 2 mM of D-luciferin, and 4 mM of adenosine triphosphate in 25 mM Tris–HCl (pH 7.4) was introduced into each well and incubated for 30 min at 25 °C. The luminescence (photon counts) was measured using a luminometer (Infinite 200 Pro 96-microplate luminometer, Tecan, Switzerland). […] X values were calculated using the following equation: X=10^logA/B×50-C/D-C+logB.
In this equation, A and B correspond to concentrations near 50% of the maximum relative light intensity. C and D represent the relative light intensity (%) at concentrations B and A, respectively.

RAW264.7 cells = test: Osteoclastic differentiation-promoting activity (TRAP-positive multinucleated osteoclasts); type: cell-based; details: sRANKL 100 ng/mL, 4 days; relative to 50 μM 1, Fig. 4
Method: RAW264.7 cells were used as pre-osteoclastic cells. Cells were cultured in α-MEM medium containing 10% fetal bovine serum, 2 mM L-glutamine, 100 U/mL penicillin, and 100 μg/mL streptomycin. Osteoclastic differentiation was induced following treatment with 100 ng/mL sRANKL (Oriental Yeast, Japan), and each sample was added to the medium and incubated for 4 days with 5% CO2 at 37 °C. Cells were fixed in 10% glutaraldehyde for 15 min at 37 °C and subsequently incubated for 10 min at 37 °C in tartrate-resistant acid phosphatase (TRAP) buffer, containing 0.1 M sodium acetate, 0.1 M acetic acid, 10 mg/mL naphthol AS-MX phosphate, 0.1% Triton X-100, 0.3 M potassium tartrate, and 0.3 mg/mL Fast Red Violet LB Salt. TRAP-positive dark-red cells with more than three nuclei were manually counted under a light microscope (20× objective) as multinucleated osteoclasts. Y-27632[22] was used as a positive control.

[1] = split-luciferase biosensor lysate, 25 °C, mean ± SD of at least triplicate determinations, read-out: Concentration at 50% maximum light intensity

Structure (SMILES)	relative intensity at a concentration of 100 μM (human VDR; 100 μM, relative light intensity compared to control (1% ethanol))	VDR binding affinity (in words) (human VDR)	Relative binding affinity (human VDR)	EC50 (human VDR; [1]) [µM]	EC50 (human VDR; Fig. 2b, Table S1, read-out: EC50 value (VDR binding affinity)) [µM]	osteoclastic differentiation-promoting activity (in words) (RAW264.7 cells)
C=C1CCCC(C)(C)C1CC/C(C)=C/CC/C=C(\C)CC/C=C(\C)CCC=C(C)C (stereo not shown) [compound 4]	0.82 ± 0.07	did not bind to the VDR; also recorded: very low VDR binding affinity	–	–	–	–
CC(C)=CCC/C(C)=C/CC/C(C)=C/CC[C@@H]1[C@@]2(C)CCCC(C)(C)[C@@H]2CC[C@@]1(C)O [compound 3]	–	–	0.88	128 ± 38	–	no activity
CC1=CC[C@H]2C(C)(C)CCC[C@]2(C)[C@H]1CC[C@@H]1[C@@]2(C)CCCC(C)(C)[C@@H]2CC[C@@]1(C)O [compound 11]	–	higher affinity than 10 and 15	8.9	12.6 ± 2.1	–	–
C/C(=C\CC[C@@H]1[C@@]2(C)CCCC(C)(C)[C@@H]2CC[C@@]1(C)O)CC[C@H]1C(C)(C)CCC[C@]1(C)O [compound 10]	–	–	4.6	24.6 ± 8.2	–	–
C=C1CC[C@H]2C(C)(C)CCC[C@]2(C)[C@H]1CC[C@@H]1[C@@]2(C)CCCC(C)(C)[C@@H]2CC[C@@]1(C)O [compound 6]	–	tenfold higher than that of 1	10	11.1 ± 1.5	–	not comparable to that of 1

The next lines start with results.

relative intensity at a concentration of 100 μM (human VDR; 100 μM, relative light intensity compared to control (1% ethanol))	VDR binding affinity (in words) (human VDR)	Relative binding affinity (human VDR)	EC50 (human VDR; [1]) [µM]	EC50 (human VDR; Fig. 2b, Table S1, read-out: EC50 value (VDR binding affinity)) [µM]	Structure (SMILES)	osteoclastic differentiation-promoting activity (in words) (RAW264.7 cells)
–	–	2.5	45.2 ± 17.1	–	C=C1CC[C@H](O)C(C)(C)[C@@H]1CC/C(C)=C/CC[C@@H]1[C@@]2(C)CCCC(C)(C)[C@@H]2CC[C@@]1(C)O [compound 15]	–
–	–	1510	0.074 ± 0.015	–	C=C1CCC(O)CC1=CC=C1CCCC2(C)C1CCC2C(C)CCCC(C)(C)O (stereo not shown) [VD-II, 25-hydroxyvitamin D3, reference compound]	–
–	higher affinity than 10 and 15	–	13.9 ± 2.5	–	C=C1CC[C@H]2C(C)(C)[C@@H](O)CC[C@]2(C)[C@H]1CC[C@@H]1[C@@]2(C)CCCC(C)(C)[C@@H]2CC[C@@]1(C)O [compound 14]	–
–	higher affinity than 10 and 15	7.0	16 ± 2.2	–	C=C1CCCC(C)(C)[C@@H]1CC/C(C)=C/CC[C@H]1C(=C)CC[C@H]2C(C)(C)CCC[C@]12C [compound 13]	–
–	–	1	–	112 ± 29	C=C1CCCC(C)(C)[C@@H]1CC/C(C)=C/CC[C@@H]1[C@@]2(C)CCCC(C)(C)[C@@H]2CC[C@@]1(C)O [compound 1, ambrein]	–
